pIC50: −log10 of the molar value.
Target: T1, WT hSLACK (Homo sapiens, UniProt Q5JUK3)
T1 construct: host or cells: CHO-K1
T1 sequence (Q5JUK3 1-1235 isoform Q5JUK3-3): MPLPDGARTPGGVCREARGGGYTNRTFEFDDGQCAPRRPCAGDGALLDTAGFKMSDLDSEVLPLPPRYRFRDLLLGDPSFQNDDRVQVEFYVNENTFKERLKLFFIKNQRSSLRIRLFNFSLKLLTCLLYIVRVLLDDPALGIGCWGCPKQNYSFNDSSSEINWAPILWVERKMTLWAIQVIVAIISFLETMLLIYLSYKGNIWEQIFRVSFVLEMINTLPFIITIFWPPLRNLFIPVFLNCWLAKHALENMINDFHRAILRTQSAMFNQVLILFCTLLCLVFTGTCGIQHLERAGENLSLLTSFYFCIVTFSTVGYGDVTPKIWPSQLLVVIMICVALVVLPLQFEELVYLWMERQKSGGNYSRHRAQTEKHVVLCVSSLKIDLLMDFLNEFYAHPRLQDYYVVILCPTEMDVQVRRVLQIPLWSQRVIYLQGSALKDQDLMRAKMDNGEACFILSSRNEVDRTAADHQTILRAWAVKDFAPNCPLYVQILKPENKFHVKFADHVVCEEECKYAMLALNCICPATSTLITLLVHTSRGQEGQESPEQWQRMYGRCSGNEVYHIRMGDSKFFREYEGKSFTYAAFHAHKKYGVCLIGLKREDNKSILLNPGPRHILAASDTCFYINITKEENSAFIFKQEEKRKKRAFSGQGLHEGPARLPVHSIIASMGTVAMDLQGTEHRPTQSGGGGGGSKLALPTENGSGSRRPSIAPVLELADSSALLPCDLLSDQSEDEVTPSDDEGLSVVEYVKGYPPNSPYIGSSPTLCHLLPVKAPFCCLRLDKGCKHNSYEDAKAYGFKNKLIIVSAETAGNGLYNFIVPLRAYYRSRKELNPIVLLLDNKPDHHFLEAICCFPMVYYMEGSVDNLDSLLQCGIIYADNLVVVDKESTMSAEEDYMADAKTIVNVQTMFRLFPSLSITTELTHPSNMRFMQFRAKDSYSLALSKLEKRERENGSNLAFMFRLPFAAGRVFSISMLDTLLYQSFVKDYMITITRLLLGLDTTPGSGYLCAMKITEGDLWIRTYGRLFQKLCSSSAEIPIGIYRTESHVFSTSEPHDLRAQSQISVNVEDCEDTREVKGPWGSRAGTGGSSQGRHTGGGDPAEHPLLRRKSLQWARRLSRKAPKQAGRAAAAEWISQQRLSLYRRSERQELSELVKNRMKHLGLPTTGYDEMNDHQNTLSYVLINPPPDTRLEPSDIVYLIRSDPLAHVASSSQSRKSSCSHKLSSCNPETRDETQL
Assay: Whole-cell automated patch-clamp (APC) in CHO cells stably expressing WT hSLACK
Type: cell-based
Conditions: for SLACK Imax: maximum inhibition at 30 µM test compound standardized to VU0606170 (set at 100%), WT hSLACK; for pIC50: whole-cell APC, CHO cells stably expressing WT hSLACK, averages n ≥ 3, read-out: SLACK IC50
Description: All new analogs were tested in our APC assay using CHO cells stably expressing WT SLACK using a concentration-response format with concentrations ranging from 0.125 to 30 μM in half-log steps and a minimum of three cells (replicates) per concentration series. […] Still, there were some notable results. For example, substitution at the 4-position was largely unfavorable regardless of the nature of the substituent (21, 24, 27, 30, and 33) apart from the 4-fluoro analog 18. […] As the trifluoromethyl group is similar in electronegativity to chlorine, but larger than both methyl and chlorine, perhaps the steric bulk of the trifluoromethyl is to blame for the poor potency of these analogs. With the exception of the fluoro (16–18) and cyano (28–30) analogs, substitution at the 3-position was favorable for SLACK activity, with 3-methoxy analog 32 standing out in this set.
Stably transfected monoclonal HEK293 cell lines expressing Slick, Maxi-K α1/β3, Maxi-K α1/β4, CaV3.2, GIRK 1/2, KV2.1, KV7.2, NaV1.7, and TASK-1 were generated as previously described. Stably transfected monoclonal HEK293 cell lines expressing hERG were generated as previously described. CHO-K1 cells expressing human Slack and disease-associated human Slack mutations, G288S and A934T, were generated by transfecting a PiggyBac TRE mammalian expression vector (VectorBuilder, Chicago, IL, USA) containing KCNT1. FuGENE 6 (Promega, Madison, WI, USA) transfection reagent and protocol, together with Opti-MEM (Thermo Fisher Scientific, Walkham, MA, USA), were utilized.
Automated patch-clamp recording was performed with a SyncroPatch 768 PE system (Nanion, Munich, Germany) as previously described. Whole-cell recordings were performed at room temperature. Cells were harvested by first washing with PBS without Mg^2+ or Ca^2+ (Gibco, Billings, MT, USA) to remove cell culture media, followed by dissociation with TryPLE (Gibco, Billings, MT, USA). Cells were then resuspended and diluted to 100,000 cells/mL in external solution. External solution contained 105 mM NaCl, 4 mM KCl, 1 mM MgCl2, 5 mM CaCl2, 10 mM HEPES, and 40 mM N-Methyl-D-glucamine chloride, titrated to pH of 7.4 and osmolarity of 300 mOsm/kg; internal solution contained 70 mM NaCl, 70 mM KF, 10 mM KCl, 5 mM EGTA, and 5 mM HEPES, titrated to a pH of 7.2 and osmolarity of 295 mOsm/kg.
The APC protocol was set as follows: Cells were held at a […] of −80 mV for 100 ms, then a ramp protocol was performed from −100 mV to 80 mV at 0.4 mV/ms, followed by holding the cell at −80 mV for another 100 ms, then steps were performed at −20 mV, 0 mV, +20 mV, +40 mV, and +60 mV for 100 ms of each step. Whole-cell currents were measured at 0 mV and normalized to current after external buffer addition. […] To obtain the concentration-response relationship graphs and IC50 values, we take the median value of the last 7 current amplitude values obtained for each set of data points collected for a given concentration at a particular step.

Compound | SLACK Imax | pIC50 | SLACK activity (in words) (APC, WT SLACK)
Cc1ccccc1Cn1c(=O)c2c(nc(N(C)Cc3ccccc3)n2C)n(C)c1=O [Analog 22] | 100% | 5.80 | –
CN(Cc1ccccc1)c1nc2c(c(=O)n(Cc3ccccc3C(F)(F)F)c(=O)n2C)n1C [Analog 25] | 70% | < 5.00 | –
CN(Cc1ccccc1)c1nc2c(c(=O)n(Cc3cccc(F)c3)c(=O)n2C)n1C [Analog 17] | 100% | 5.80 | –
COc1cccc(CN(C)c2nc3c(c(=O)n(Cc4ccccc4)c(=O)n3C)n2C)c1 [Analog 60] | 100% | 5.57 | –
CN(Cc1ccccc1F)c1nc2c(c(=O)n(Cc3ccccc3)c(=O)n2C)n1C [Analog 47] | 100% | 5.57 | –
CN(Cc1ccccc1C(F)(F)F)c1nc2c(c(=O)n(Cc3ccccc3)c(=O)n2C)n1C [Analog 56] | 100% | 5.72 | –
CCN(Cc1ccccc1)c1nc2c(c(=O)n(Cc3ccccc3)c(=O)n2C)n1C [Analog 67] | 100% | 5.85 | –
CCCn1c(N(C)Cc2ccccc2)nc2c1c(=O)n(Cc1ccccc1)c(=O)n2C [Analog 42] | 94% | < 5.00 | –
CN(Cc1ccccc1)c1nc2c(c(=O)n(Cc3ccccc3Cl)c(=O)n2C)n1C [Analog 19] | 89% | 5.70 | –
CN(Cc1ccc(F)cc1)c1nc2c(c(=O)n(Cc3ccccc3)c(=O)n2C)n1C [Analog 49] | 100% | 5.80 | –
CN(Cc1ccccc1)c1nc2c(c(=O)n(Cc3cccc(C#N)c3)c(=O)n2C)n1C [Analog 29] | 100% | 5.62 | –
Cc1ccccc1CN(C)c1nc2c(c(=O)n(Cc3ccccc3)c(=O)n2C)n1C [Analog 53] | 100% | 5.00 | –
CN(Cc1ccccc1)c1nc2c(c(=O)n(Cc3ccc(C#N)cc3)c(=O)n2C)n1C [Analog 30] | 100% | 5.62 | –
CN(Cc1ccccc1)c1nc2c(c(=O)n(Cc3ccc(F)cc3)c(=O)n2C)n1C [Analog 18] | 100% | 5.89 | –
Cc1cccc(CN(C)c2nc3c(c(=O)n(Cc4ccccc4)c(=O)n3C)n2C)c1 [Analog 54] | 100% | 5.70 | –
Cn1c(N2Cc3ccccc3C2)nc2c1c(=O)n(Cc1ccccc1)c(=O)n2C [Analog 74] | – | – | inactive
COc1ccc(CN(C)c2nc3c(c(=O)n(Cc4ccccc4)c(=O)n3C)n2C)cc1 [Analog 61] | 100% | 5.62 | –
Cn1c(N(Cc2ccccc2)Cc2ccccc2)nc2c1c(=O)n(Cc1ccccc1)c(=O)n2C [Analog 72] | 100% | 5.85 | –
CN(Cc1cccc(C(F)(F)F)c1)c1nc2c(c(=O)n(Cc3ccccc3)c(=O)n2C)n1C [Analog 57] | 101% | 5.82 | –
CN(Cc1ccccc1)c1nc2c(c(=O)n(Cc3ccccc3F)c(=O)n2C)n1C [Analog 16] | 100% | 5.74 | –

Compound | SLACK Imax | pIC50 | SLACK activity (in words) (APC, WT SLACK)
CN(Cc1ccccn1)c1nc2c(c(=O)n(Cc3ccccc3)c(=O)n2C)n1C [Analog 62] | 107% | < 5.00 | –
CCCN(Cc1ccccc1)c1nc2c(c(=O)n(Cc3ccccc3)c(=O)n2C)n1C [Analog 68] | 100% | 5.89 | –
CN(Cc1ccccc1)c1nc2c(c(=O)n(Cc3ccccc3)c(=O)n2C)n1C [Analog 8] | 100% | 5.77 | –
C[C@@H](c1ccccc1)N(C)c1nc2c(c(=O)n(Cc3ccccc3)c(=O)n2C)n1C [Analog 66] | 50% | < 5.00 | –
Cc1ccc(CN(C)c2nc3c(c(=O)n(Cc4ccccc4)c(=O)n3C)n2C)cc1 [Analog 55] | 100% | 5.74 | –
C[C@H](c1ccccc1)N(C)c1nc2c(c(=O)n(Cc3ccccc3)c(=O)n2C)n1C [Analog 65] | 100% | 5.80 | –
CN(Cc1ccccc1)c1nc2c(c(=O)n(Cc3ccccc3C#N)c(=O)n2C)n1C [Analog 28] | 99% | 5.60 | –
CN(Cc1ccccc1)c1nc2c(c(=O)n(Cc3ccc(Cl)cc3)c(=O)n2C)n1C [Analog 21] | 100% | 5.59 | –
CN(Cc1ccc(Cl)cc1)c1nc2c(c(=O)n(Cc3ccccc3)c(=O)n2C)n1C [Analog 52] | 100% | 5.64 | –
CCn1c(N(C)Cc2ccccc2)nc2c1c(=O)n(Cc1ccccc1)c(=O)n2C [Analog 41] | 87% | < 5.00 | –
Cc1cccc(Cn2c(=O)c3c(nc(N(C)Cc4ccccc4)n3C)n(C)c2=O)c1 [Analog 23] | 100% | 5.82 | –
Cn1c(NCc2ccccc2)nc2c1c(=O)n(Cc1ccccc1)c(=O)n2C [Analog 46a] | 88% | 5.22 | –
Cn1c(N2CCc3ccccc3C2)nc2c1c(=O)n(Cc1ccccc1)c(=O)n2C [Analog 75] | 100% | 5.55 | –
COc1ccc(Cn2c(=O)c3c(nc(N(C)Cc4ccccc4)n3C)n(C)c2=O)cc1 [Analog 33] | 78% | < 5.00 | –
CN(Cc1cccnc1)c1nc2c(c(=O)n(Cc3ccccc3)c(=O)n2C)n1C [Analog 63] | 20% | < 5.00 | –
COc1ccccc1Cn1c(=O)c2c(nc(N(C)Cc3ccccc3)n2C)n(C)c1=O [Analog 31] | 100% | 5.89 | –
CN(Cc1ccc(C(F)(F)F)cc1)c1nc2c(c(=O)n(Cc3ccccc3)c(=O)n2C)n1C [Analog 58] | 100% | 5.72 | –
CN(Cc1ccccc1)c1nc2c(c(=O)n(Cc3ccc(C(F)(F)F)cc3)c(=O)n2C)n1C [Analog 27] | 79% | 5.01 | –
CN(Cc1ccccc1)c1nc2c(c(=O)n(Cc3cccc(C(F)(F)F)c3)c(=O)n2C)n1C [Analog 26] | 100% | 5.38 | –
CN(Cc1ccccc1)c1nc2c(c(=O)n(Cc3cccc(Cl)c3)c(=O)n2C)n1C [Analog 20] | 100% | 5.72 | –

— article PMC11173529, “Structure–Activity Relationship Studies in a Series of Xanthine Inhibitors of SLACK Potassium Channels” (Molecules, 2024)
